Experimental data: patent US5491135A (priority 1993, dated 1996)
≈ marks a conversion by molar mass, not a printed value. Where “and” joins values, the source holds several entries; their conditions need not be identical. Equal entries are not always repeated. Entries after “also recorded” stand apart in the source; their conditions may differ. Where two headings read alike, the source gives them in different places.

How the values were obtained:
clinical HCMV isolate = format: cell-based
HCMV strain AD 169 = assay: Rabbit HCMV ascending dose efficacy and time course recovery (Example 7); conditions: for Average HCMV titer / HCMV Recovered, OD / HCMV Recovered, OS / HCMV Titer, OD / HCMV Titer, OS / HCMV recovery frequency / Optic neuritis score (ONH) / Vitreo-retinal score: PALA 50 or DHPG 10 mg/kg/d; for Vitreo-retinal score: sum of both eyes
HCMV strain AD169 = format: cell-based

## Nc1nc(O)c2ncn(COC(CO)CO)c2n1 [DHPG, reference compound]
Clinical HCMV isolate
  reduction of HCMV titer: effective in reducing the titer
Clinical HCMV isolate; day 0 PI
  Cell associated HCMV titer: 10^2 PFU/ml
  Cell free (supernatant) HCMV titer: 10^5 PFU/ml
Clinical HCMV isolate; day 1 PI
  Cell associated HCMV titer: 10^3 PFU/ml
  Cell free (supernatant) HCMV titer: 10^1 PFU/ml
Clinical HCMV isolate; day 2 PI
  Cell associated HCMV titer: 10^2 PFU/ml
  Cell free (supernatant) HCMV titer: 10^1 PFU/ml
Clinical HCMV isolate; day 3 PI
  Cell associated HCMV titer: 10^1 PFU/ml
  Cell free (supernatant) HCMV titer: 10^1 PFU/ml
Clinical HCMV isolate; day 4 PI
  Cell associated HCMV titer: 10^1 PFU/ml
  Cell free (supernatant) HCMV titer: 10^1 PFU/ml
Clinical HCMV isolate; day 5 PI
  Cell associated HCMV titer: 0 PFU/ml
  Cell free (supernatant) HCMV titer: 0 PFU/ml
Clinical HCMV isolate; day 6 PI
  Cell associated HCMV titer: 10^1 PFU/ml
Clinical HCMV isolate; day 7 PI
  Cell associated HCMV titer: 10^1 PFU/ml
HCMV strain AD 169; PALA 50 or DHPG 10 mg/kg/day i.v.
  clinical disease / efficacy: did reduce the development of HCMV-induced optic nerve disease severity; also recorded: vitreitis was only marginally affected
HCMV strain AD 169; day 3
  Average HCMV titer: 10^3 pfu
  HCMV Recovered, OD: +
  HCMV Recovered, OS: - and +
  HCMV Titer, OD: 10^4 pfu
  HCMV Titer, OS: 10^3 pfu
  HCMV recovery frequency: 3/4
  Optic neuritis score (ONH): 5.0 and 4.0
  Vitreo-retinal score: 4.75 and 5.0
HCMV strain AD 169; day 4
  HCMV Recovered, OD: +
  HCMV Recovered, OS: -
  HCMV Titer, OD: 10^2 pfu and 10^3 pfu
  HCMV recovery frequency: 2/4
  Optic neuritis score (ONH): 6.0 and 5.0
  Vitreo-retinal score: 3.75 and 5.75
HCMV strain AD 169; day 5
  Average HCMV titer: 10^2 pfu
  HCMV Recovered, OD: - and +
  HCMV Recovered, OS: + and -
  HCMV Titer, OD: 10^2 pfu
  HCMV Titer, OS: 10^2 pfu
  HCMV recovery frequency: 2/4
  Optic neuritis score (ONH): 4.0 and 5.0
  Vitreo-retinal score: 4.0 and 5.0
HCMV strain AD 169; day 6
  Average HCMV titer: 10^1 pfu
  HCMV Recovered, OD: -
  HCMV Recovered, OS: - and +
  HCMV Titer, OD: 10^2 pfu
  HCMV recovery frequency: 1/4
  Optic neuritis score (ONH): 2.0
HCMV strain AD 169; day 7
  Optic neuritis score (ONH): 2.0
  Vitreo-retinal score: 3.25 and 5.5
HCMV strain AD 169; day 12
  HCMV Recovered, OD: -
  HCMV Recovered, OS: -
HCMV strain AD169; Human betaherpesvirus 5, AD169, Hs68, AD 169, read-out: ED50 (the source's name)
  EC50: 19 µg/mL (≈ 74.4 µM)
HCMV strain AD169; day 0 PI
  Cell associated HCMV titer: 10^2 PFU/ml
  Cell free (supernatant) HCMV titer: 10^5 PFU/ml
HCMV strain AD169; day 1 PI
  Cell associated HCMV titer: 10^2 PFU/ml
  Cell free (supernatant) HCMV titer: 10^1 PFU/ml
HCMV strain AD169; day 2 PI
  Cell associated HCMV titer: 10^1 PFU/ml
  Cell free (supernatant) HCMV titer: 10^1 PFU/ml
HCMV strain AD169; day 3 PI
  Cell associated HCMV titer: 10^1 PFU/ml
  Cell free (supernatant) HCMV titer: 10^1 PFU/ml
HCMV strain AD169; day 4 PI
  Cell associated HCMV titer: 10^1 PFU/ml
  Cell free (supernatant) HCMV titer: 0 PFU/ml
HCMV strain AD169; day 5 PI
  Cell associated HCMV titer: 0 PFU/ml
  Cell free (supernatant) HCMV titer: 0 PFU/ml
HCMV strain AD169; day 6 PI
  Cell associated HCMV titer: 10^1 PFU/ml
HCMV strain AD169; day 7 PI
  Cell associated HCMV titer: 0 PFU/ml
